Assay: Human HepG2 cell viability assay in 384 well format
Assay type: toxicity, cell-based
Parameters: dose 125 nL, time 70.5 hour; cytotoxicity at 70.5 h: concentration not given beside the values
Conditions: HepG2 cells, read-out: Inhibition

SMILES	cytotoxicity at 70.5 h [%]
CC1CCN(CCNC(=O)C2CCN(S(N)(=O)=O)CC2)CC1	-3.07
CN(C)CCN(Cc1ccc(Cl)cc1)C(=O)c1cc[nH]n1	-3.35
NC(=O)CN1CCC(NC(=O)c2ccn(-c3cccc(F)c3)n2)CC1	-3.27
Brc1cc2c(cc1CN1CCC(N3CCCCC3)CC1)OCCO2	-2.82
CC(NC(=O)N(C)Cc1ccncc1)c1nncn1C (centres undefined)	-4.45
COc1cc(C)nc(N2CCN(Cc3nccn3C)CC2)n1	0.0501
Cc1cc(NC(=O)CN2CCc3nn(C)c(=O)cc3C2)on1	1.43
CSCCCNC(=O)Nc1cccc(-c2nccn2C)c1	3.57
Cn1ccnc1-c1cccc(NC(=O)NCCCO)c1	1.83
N#Cc1cccc(SCCS(N)(=O)=O)c1	-6.9
Cc1nc(C2CCCN(C(=O)c3scnc3C)C2)no1 (centres undefined)	-7.6
Cc1nc(C2CCCN(C(=O)c3sccc3C3CC3)C2)no1 (centres undefined)	-8.62
O=C(c1cc(Cl)c2c(c1)OCO2)N1CCN(c2ccccn2)CC1	-2.19
CC(NC(=O)C1=NN(C)C(=O)CC1)c1ccc(F)cc1F (centres undefined)	20
CC(OCC(F)(F)F)C(=O)N1CCN(S(C)(=O)=O)CC1 (centres undefined)	-1.69
O=C(NCCCn1cccn1)C1(c2ccc(F)cc2)CC1	-2.75
Cc1cccc(C2(C(=O)NCCCn3cccn3)CC2)c1	-5.49
Cc1ccc(C(=O)NC(CN2CCCC2=O)c2ccccc2)c(=O)[nH]1 (centres undefined)	17.4
Cc1nc(C(C)(C)NC(=O)Nc2cccc(C#N)c2)no1	-2.69
OCCOc1nc(-c2ccccc2Cl)no1	-1.34
O=C1OCCN1CCOc1nc(-c2ccccc2Cl)no1	-4.69
CN(CC(F)(F)F)C(=O)C1CSCN1C(=O)OC(C)(C)C (centres undefined)	4.04

SMILES	cytotoxicity at 70.5 h [%]
CCCc1cc(NC2CCc3ncnn3C2)n2ncnc2n1 (centres undefined)	0.783
Cc1nc2n(n1)CC(Nc1cc(C(F)(F)F)nc3ncnn13)CC2 (centres undefined)	-0.866
CCc1ncc2c(n1)CN(Cc1nc(C)c(C)o1)CC2	1.3
Cc1c(Br)cccc1C(=O)NC(C)CN1CCCC1=O (centres undefined)	1.84
CCn1nc2c(cc1=O)CN(Cc1nc3ccccc3c(=O)[nH]1)CC2	0.253
CCc1nc2n(n1)CC(Nc1cc(C)nc3ncnn13)CC2 (centres undefined)	-5.27
O=C(NS(=O)(=O)c1ccccc1Cl)c1cccc2c1OCCO2	-3.53
O=C(NS(=O)(=O)c1cc(Cl)sc1Cl)c1cccc2c1OCCO2	1.61
CC(C)NC(=O)N1CCC(n2ccc(C(F)(F)F)n2)CC1	1.15
CN(CCC(F)(F)F)C(=O)C1CCCN1C(=O)OC(C)(C)C (centres undefined)	0.473
CCc1n[nH]c(C2CN(CC(=O)NCCc3ccsc3)CCO2)n1 (centres undefined)	-3.93
c1csc(-c2nc(CN3CCCC3Cn3cncn3)co2)c1 (centres undefined)	-10.5
Cc1nc(CN2CCc3cncnc3C2)oc1C	-5.69
Cc1ccn(-c2ccccc2NCc2ccccn2)n1	-8
Cc1ccc(F)c(C(=O)N2CCN(S(C)(=O)=O)[C@@H](C)C2)c1	-3.67
Cc1cc(F)cc(S(=O)(=O)NCCCN2CCC(O)CC2)c1	11.3
Cc1cc(F)c(S(=O)(=O)NCCCN2CCC(O)CC2)cc1F	7.32
O=C(C(CNCc1ccncc1)c1ccccc1)N1CCOCC1 (centres undefined)	-5.58
NC(=O)C1CCN(Cn2nc(-c3ccc(F)cc3)oc2=O)CC1	5.9
Cc1cc(CN(C)C(=O)C2CCCN(C(=O)c3ccc(Cl)cc3)C2)no1 (centres undefined)	-10.8
Cc1ccc(-n2nnc(CC(=O)N3CCSCC3)c2C)cc1	-12.8
CCOc1cc(CN(C)CCOC)ccc1OC(F)F	12.4

SMILES	cytotoxicity at 70.5 h [%]
Cc1oc(-c2ccsc2)nc1CC(=O)NCCS(C)(=O)=O	-12.9
C[C@@H]1C[C@@H]2CCN(Cc3ccccn3)C[C@H]2O1	-5.42
Cc1cccc(CN2CC[C@H]3C[C@H](C)O[C@@H]3C2)n1	-4.58
O=C(CO)N1C[C@H]2CN(Cc3cccc(F)c3)C(=O)[C@H]2C1	-5.34
Cc1nccc([C@@H]2C[C@@H]3CCN(Cc4c(C)noc4C)C[C@H]3O2)n1	-10.7
O=C(C1CCOC1)N1CCC2(CCN(Cc3nccs3)C2)CC1 (centres undefined)	-10.1
Cc1cnc(C(=O)N2C[C@H]3CN(Cc4cccc(F)c4)C(=O)[C@H]3C2)cn1	10.5
CN1C(=O)CC(c2cnn(C)c2)C12CCN(C(=O)c1cscn1)CC2 (centres undefined)	-2.36
Cc1oncc1C(=O)N1CCC2(CC1)C(c1cnn(C)c1)CC(=O)N2C (centres undefined)	-9.68
Cc1cnc(C(=O)N2C[C@@H](NS(C)(=O)=O)[C@@H]3OCCC[C@@H]32)cn1	-13.4
Fc1cnc(N2CCCC3(CCN(Cc4nccs4)C3)C2)nc1 (centres undefined)	15
c1ccc(NCc2cnc3n2CCN(C2CCOC2)CC3)nc1 (centres undefined)	15.7
CS(=O)(=O)N[C@@H]1CN(C(=O)c2ccccn2)C[C@@H]2CCCO[C@@H]21	-9.33
c1nc2n(c1CN1CCCC1)CCN(C1CCOCC1)CC2	-7.69
c1ccc(COCC2CN(Cc3ccsc3)Cc3nccn3C2)nc1 (centres undefined)	-7.86
CS(=O)(=O)NCc1ncn2c1CN(C(=O)C1CCCCC1)CCC2	-4.09
CS(=O)(=O)NCc1ncn2c1CN(CCN1CCCC1)CCC2	-6.23
Cc1ccc(NC(=O)N2CC(C(=O)NC(C)C)C3(CCOCC3)C2)cc1 (centres undefined)	-6.28
Cc1ccc(C(=O)N2C[C@@H]3OCCN(C(C)C)[C@@H]3C2)cn1	-11.3
CC(C)NC(=O)C1CN(C(=O)COc2ccccc2)CC12CCOCC2 (centres undefined)	-9.68
CN(C)C(=O)n1c(C(=O)NC(C)(C)CO)cc2c1c1ccccc1n2C	-6.99
CC(C)NC(=O)C1CN(C(=O)Nc2ccc(F)cc2)CC12CCOCC2 (centres undefined)	-6.35

SMILES	cytotoxicity at 70.5 h [%]
CC(C)NC(=O)C1CN(C(=O)Nc2cccc(F)c2)CC12CCOCC2 (centres undefined)	-6.98
O=C(c1ccnnc1)N1CCC2(CC1)CN(c1ccccn1)CCO2	-10.9
CC(C)N1CCO[C@H]2CN(C(=O)c3ccncc3)C[C@H]21	11.9
CCC1=N[C@@]2(CC[C@@H]3CN(C(=O)NCc4cccc(F)c4)C[C@@H]32)C(=O)N1	-5.99
O=C(N1CCOCC1)N1CCC2(CC1)CN(c1ccccn1)CCO2	-6.33
COCCN1CCOCC12CCN(C(=O)c1c[nH]c3ccccc13)CC2	-13.9
CC(=O)N1CCC2(CCN(C(=O)c3cccc(C(F)(F)F)c3)CC2)C1	7.98
O=C(NC1CCC1)C1=NOC2(CCN(Cc3ccco3)C2)C1 (centres undefined)	6.54
C=C(C)COc1cccc(CNC(COC)c2ccnn2C)c1 (centres undefined)	2.53
O=C1CCC2(CCN(CC[C@H](O)c3ccccc3)CC2)CN1CCO	1.6
COc1ccc2c(c1)OCC(Cc1cnccc1N)C2 (centres undefined)	-3.68
Cc1cc(C2CCCN2C(=O)CN2C(=O)OC(C)(C)C2=O)on1 (centres undefined)	-2.6
CCCS(=O)(=O)N1CCC2(CCCN(Cc3cccc(F)c3F)C2=O)C1 (centres undefined)	-7.34
CCn1ncc2c1CN(C(=O)c1cscn1)CC2COC (centres undefined)	-7.98
CN(C)C(=O)CN1C[C@H]2CN(Cc3cccc(F)c3)C(=O)[C@H]2C1	-5.27
O=C(c1cccnc1)N1C[C@H]2CN(Cc3cccc(F)c3)C(=O)[C@H]2C1	-3.89
Cc1ccc(CN2CCC3(CCN(c4cnn(C)c4)C3=O)C2)s1 (centres undefined)	13.4
COc1ccc(CN2C[C@@H]3OCCN(C)[C@@H]3C2)cc1	-4.77
Cn1cc(N2CCC3(CCCN(Cc4ccc(F)cc4)C3)C2=O)cn1 (centres undefined)	-12.2
O=C(c1ccccn1)N1C[C@H]2CCC[C@@]2(COCC2CCOCC2)C1	-10.8
COc1cc(N2CC[C@@H](O)[C@@H]2Cc2cccnc2)ncn1	-8.63
O=C1[C@H]2CN(Cc3ccc(F)cc3)C[C@H]2CN1c1ccsc1	-13.2

SMILES	cytotoxicity at 70.5 h [%]
O=C(c1ccno1)N1CC[C@@H]2O[C@H](COCCN3CCCC3)CC[C@@H]21	9.33
COc1ccc(CN2CCC3(CCCN(c4ncc(F)cn4)C3)C2)cc1 (centres undefined)	50.3
COc1cc(N2C[C@H]3CCC[C@@H](CN(C)C4CC4)[C@H]3C2)ncn1	-1.7
COCCNC(=O)[C@@]12CCO[C@@H]1CCN(Cc1ccc(OC)cc1)C2	-5.1
Cc1ccc(C(=O)N2CCC3(CC2)CN(c2ccccn2)CCO3)cc1	-8.31
COCCN1CCOCC12CCN(C(=O)c1ccoc1)CC2	-4.83
Cc1occc1C(=O)N1C[C@@H]2OCCN(C(C)C)[C@@H]2C1	5.55
Cc1oncc1C(=O)N1CCOCC2(CCN(c3ccccn3)C2)C1 (centres undefined)	-3.11
Cc1ccc(N2CCO[C@H]3CN(Cc4ccc(F)cc4)C[C@H]32)nn1	-7.45
Fc1ccc(CN2C[C@@H]3OCCN(CC4CCCO4)[C@@H]3C2)cc1 (some centres undefined)	11
c1cc(COC[C@]23COC[C@H]2CN(Cc2ccsc2)C3)ccn1	7.32
COc1cccc(CN2C[C@@H]3COC[C@]3(COCc3ccccn3)C2)c1	2.25
Fc1cnc(N2CCCC3(CCN(Cc4ccco4)C3)C2)nc1 (centres undefined)	10.4
Fc1ccc(CN2Cc3nccn3CC(CN3CCOCC3)C2)cc1 (centres undefined)	-8.01
Cc1ccc(CN2Cc3nccn3CC(CN(C)C)C2)s1 (centres undefined)	-7.65
Cc1ccc2c(n1)N(Cc1cccnc1)CCN(C(=O)C1CC1)C2	11.2
CN(C)CC1CN(Cc2ccc(F)cc2)Cc2nccn2C1 (centres undefined)	-4.49
CC(C)N1CCO[C@H]2CN(C(=O)c3ccccn3)C[C@H]21	-7.58
COCCN(C)C1COC2(CCN(Cc3cccc(F)c3)CC2)C1 (centres undefined)	10.1
c1cc(CN2C[C@@H]3OCCN(CC4CCCO4)[C@@H]3C2)ccn1 (some centres undefined)	8.75
CN(Cc1ccncc1)C1COC2(CCN(Cc3ccco3)CC2)C1 (centres undefined)	9.94

Source: ChEMBL document CHEMBL3507680, “University of Dundee, Gates Library screen for HepG2 cell viability”
